Measured values taken from patent publication US7919468B2, “Compounds useful as modulators of the proteasome activity” (Centre National de la Recherche Scientifique (C.N.R.S.), priority 2005, dated 2011).
Peptide text beside a SMILES is read from it. * marks the point of attachment. Boc = CC(C)(C)OC(=O)*; NHBn = c1ccc(CN*)cc1; NHPh = c1ccc(N*)cc1; Bn = c1ccc(C*)cc1

Tests used:
[1] = target: T1, rabbit 20S proteasome, trypsin-like (T-L) activity (Oryctolagus cuniculus, UniProt G1SWK8); assay: Rabbit 20S proteasome fluorescent assay, trypsin-like activity (Boc-LLR-amc); assay type: biochemical; settings: pH 7.5, 30° C.; for inhibition at 100 µM: 100 μM compound
T1 construct: other: 100 μM compound, pH 7.5, 30° C; other: pH 7.5, 30° C
T1 sequence (G1SWK8 1-271): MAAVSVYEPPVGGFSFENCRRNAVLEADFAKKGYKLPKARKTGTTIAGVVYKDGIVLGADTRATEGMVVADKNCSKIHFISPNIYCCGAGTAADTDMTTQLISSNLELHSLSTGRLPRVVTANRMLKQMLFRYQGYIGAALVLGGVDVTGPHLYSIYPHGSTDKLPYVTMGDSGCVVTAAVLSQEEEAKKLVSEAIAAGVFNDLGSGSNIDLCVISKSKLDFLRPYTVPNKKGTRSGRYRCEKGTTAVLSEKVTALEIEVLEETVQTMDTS
Protocol: (§1) 20S proteasome from rabbit reticulocyte was from commercial source (Alexis Biochemicals)
(§2) Semi-automatic fluorescent assays using Suc-LLVY-amc (SEQ ID NO: 2) for chymotrypsin-like activity, Z-LLE-SNA for post-acid activity and Boc-LLR-amc for trypsin-like activity of proteasome were performed at pH 7.5 and 30° C. using BMG Fluostar microplate reader (Suc=succinyl; amc=7-amino-4-methylcoumarin; Z=benzyloxycarbonyl; NA=2-naphtylamine; Boc=tert-butoxycarbonyl). The buffers were: 20 mM Tris, 1 mM DTT, 10% glycerol, 3% (v/v) DMSO (ChT-L and PA activities); 20 mM Tris, 1 mM DTT, 10% glycerol, 3% (v/v) DMSO. Studied compounds were dissolved in DMSO prior dissolution in the buffer. Proteasome was incubated for 15 min at 30° C. in the presence of the studied compound (0.1-100 μM). A control assay in the absence of tested compounds contained DMSO at the same concentration (3%, v/v). The fluorogenic proteasome substrate was then added and the hydrolysis of the appropriate fluorescent substrate was monitored for 1 h (λexc=360, λem=465 nm for amc substrates and λexc=340, λem=405 nm for the βNA substrate). Initial rates determined in control experiments were considered to be 100% of the peptidasic activity; initial rates that were above 100% in the presence of a test compound were considered to be activations, while initial rates below 100% were considered to be inhibitions. For weak inhibitors, the percentage of inhibition at a reference concentration (100 μM) is reported. The results, expressed in % inhibition (or activation factor), were obtained by calculating the average of at least two independent experiments, the variability was less than 10%. The inhibitory activity of more efficient compounds are expressed as IC50 calculated by fitting the experimental data to the equation 1: % Inhibition=100 [I]0/(IC50+[I]0)=100 (v0−vi/v0), or equation 2: % Inhibition=100 [I]0^nH/(IC50^nH+[I]0^nH), nH is the Hill number. v0 and vi are the initial rates in the absence and in the presence of inhibitor. A Dixon plot has been used to determine the inhibition constant Ki for competitive inhibition by compound A215. The reversible character of inhibition or activation was determined by measuring the activity of treated enzyme after the inhibitor molecule has been withdrawn from the reaction medium.
(§3) Inhibition of Rabbit 20 S Proteasome (pH=7.5, 30° C.)
(§4) Activation of Rabbit 20 S Proteasome (pH=7.5, 30° C., [Compound]=100 μM)

[2] = target: T2, rabbit 20S proteasome, chymotrypsin-like (CT-L) activity (Oryctolagus cuniculus, UniProt G1T4Q9); assay: Rabbit 20S proteasome fluorescent assay, chymotrypsin-like activity (Suc-LLVY-amc); assay type: biochemical; settings: pH 7.5, 30° C.
T2 construct: other: 100 μM compound, pH 7.5, 30° C; other: pH 7.5, 30° C; CT-L Ki
T2 sequence (G1T4Q9 1-263): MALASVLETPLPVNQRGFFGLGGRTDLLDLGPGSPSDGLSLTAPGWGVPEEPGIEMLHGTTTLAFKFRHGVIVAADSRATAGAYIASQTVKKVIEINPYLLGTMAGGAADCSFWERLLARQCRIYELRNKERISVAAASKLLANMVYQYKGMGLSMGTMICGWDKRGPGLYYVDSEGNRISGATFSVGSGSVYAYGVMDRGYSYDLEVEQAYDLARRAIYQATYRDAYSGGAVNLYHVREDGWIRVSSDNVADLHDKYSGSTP
Protocol: as §1, §2, §3, §4

[3] = tested on: T3, rabbit 20S proteasome, chymotrypsin-like (CT-L) activity; assay: as above; assay type: biochemical; settings: [Compound]=100 μM, pH 7.5, 30° C.
T3 construct: other: [Compound]=100 μM, pH 7.5, 30° C
Protocol: as §1, §2, §3, §4

[4] = tested on: rabbit 20S proteasome, trypsin-like (T-L) activity; assay: Rabbit 20S proteasome fluorescent assay, trypsin-like activity (Boc-LLR-amc); assay type: biochemical; settings: [Compound]=100 μM, pH 7.5, 30° C.
Protocol: as §1, §2, §3, §4

[5] = target: T4, rabbit 20S proteasome, post-acid (PA) activity (Oryctolagus cuniculus, UniProt A0A5F9DQW2); assay: Rabbit 20S proteasome fluorescent assay, post-acid activity (Z-LLE-βNA); assay type: biochemical; settings: pH 7.5, 30° C.; for PA % inhibition (at 100 μM): 100 μM compound
T4 construct: other: 100 μM compound, pH 7.5, 30° C; other: pH 7.5, 30° C
Protocol: as §1, §2, §3, §4

[6] = patients enrolled in clinical trials (thrombocytopaenia, fatigue, peripheral neuropathy, neutropenia); cited from earlier work
[7] = tested on: rabbit 20S proteasome, post-acid (PA) activity; assay: Rabbit 20S proteasome fluorescent assay, post-acid activity (Z-LLE-βNA); assay type: biochemical; settings: [Compound]=100 μM, pH 7.5, 30° C.
Protocol: as §1, §2, §3, §4

T4 sequence (A0A5F9DQW2 1-212): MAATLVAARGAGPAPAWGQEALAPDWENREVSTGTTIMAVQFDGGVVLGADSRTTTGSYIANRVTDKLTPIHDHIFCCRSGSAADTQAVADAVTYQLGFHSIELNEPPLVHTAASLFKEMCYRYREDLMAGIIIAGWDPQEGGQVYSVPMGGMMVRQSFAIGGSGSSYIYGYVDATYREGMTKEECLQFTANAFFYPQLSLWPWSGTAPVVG

Row | SMILES | CT-L Activation factor [3] | T-L Activation factor [4] | also measured
1 | CNC(=O)[C@H](Cc1c[nH]c2c(-c3cc(C[C@H](NC(=O)OC(C)(C)C)C(=O)N[C@@H](CC(C)C)C(=O)OC)ccc3OCc3ccccc3)cccc12)NC(=O)OCc1ccccc1 [SP226F1] | – | – | inhibition at 100 µM [1]: 23%
2 | CC(C)(C)OC(=O)NCCCC[C@H](NC(=O)[C@H](Cc1ccc(OCc2ccccc2)cc1)NC(=O)OC(C)(C)C)C(=O)N[C@@H](Cc1c[nH]c2ccccc12)C(=O)Nc1ccc(O)cc1 [SP319P, N-Boc-Tyr(Bn)-Lys(Boc)-Trp-NH(4-OH)Ph] | – | – | inhibition at 100 µM ([2]; 100 μM compound): 36%; inhibition at 100 µM [1]: 14%
3 | CC(C)(C)OC(=O)NCCCCNC(=O)[C@H](Cc1c[nH]c2ccccc12)NC(=O)[C@H](CCCCNC(=O)OC(C)(C)C)NC(=O)[C@H](Cc1ccc(OCc2ccccc2)cc1)NC(=O)OC(C)(C)C [SP308P, N-Boc-Tyr(Bn)-Lys(Boc)-Trp-NH(CH2)4NHBoc] | 1.6 | 1.9 | –
4 | CNC(=O)[C@H](Cc1c[nH]c2c(-c3cc(C[C@H](NC(=O)OC(C)(C)C)C(=O)N[C@@H](C)C(=O)OC)ccc3OCc3ccccc3)cccc12)NC(=O)OCc1ccccc1 [SP225F2] | – | – | PA % inhibition (at 100 μM) [5]: 25%; inhibition at 100 µM [1]: 49%
5 | CC(C)C[C@H](NC(=O)[C@H](Cc1ccc(OCc2ccccc2)cc1)NC(=O)OC(C)(C)C)C(=O)N[C@@H](Cc1c[nH]c2ccccc12)C(=O)NCc1ccccc1 [A414P, N-Boc-Tyr(Bn)-Leu-Trp-NHCH2Ph] (Boc-Tyr(Bn)-Leu-Trp-NHBn) | 1.3 | 1.9 | –
6 | C[C@H](NC(=O)[C@H](Cc1ccc(OCc2ccccc2)cc1)NC(=O)OC(C)(C)C)C(=O)N[C@@H](Cc1c[nH]c2ccccc12)C(=O)Nc1ccccc1 [SP303r2, N-Boc-Tyr(Bn)-Ala-Trp-NHPh] (Boc-Tyr(Bn)-Ala-Trp-NHPh) | 1.4 | 1.6 | –
7 | CC(C)(C)OC(=O)N[C@@H](Cc1ccc(OCc2ccccc2)cc1)C(=O)NCC(=O)N[C@@H](Cc1c[nH]c2ccccc12)C(=O)NCc1ccccc1 [PSV11R, N-Boc-Tyr(Bn)-Gly-Trp-NHCH2Ph] (Boc-Tyr(Bn)-Gly-Trp-NHBn) | 1.2 | 1.7 | PA % inhibition (at 100 μM) [5]: 59%
8 | CC(C)C[C@H](NC(=O)[C@H](Cc1ccccc1)NC(=O)c1cnccn1)B(O)O [Bortezomib, bortezomib] | – | – | patients with adverse events [6]: 30%
9 | CC(C)(C)OC(=O)NCCCC[C@H](NC(=O)[C@H](Cc1ccc(OCc2ccccc2)cc1)NC(=O)OC(C)(C)C)C(=O)N[C@@H](Cc1c[nH]c2ccccc12)C(=O)Nc1ccccc1 [SP306P, N-Boc-Tyr(Bn)-Lys(Boc)-Trp-NHPh] (Boc-Tyr(Bn)-Lys(Boc)-Trp-NHPh) | 1.2 | 1.6 | –
10 | CC(C)(C)OC(=O)NCCCC[C@H](NC(=O)[C@H](Cc1ccc(OCc2ccccc2)cc1)NC(=O)OC(C)(C)C)C(=O)N[C@@H](Cc1c[nH]c2ccccc12)C(=O)NCc1ccccc1 [SP307P, N-Boc-Tyr(Bn)-Lys(Boc)-Trp-NHCH2Ph] (Boc-Tyr(Bn)-Lys(Boc)-Trp-NHBn) | 1.3 | 1.8 | –
11 | CC(C)(C)OC(=O)N[C@@H](Cc1ccc(OCc2ccccc2)cc1)C(=O)N[C@@H](CCCN(C(=N)NC(=O)OCc1ccccc1)C(=O)OCc1ccccc1)C(=O)N[C@@H](Cc1c[nH]c2ccccc12)C(=O)NCc1ccccc1 [SP315C2, N-Boc-Tyr(Bn)-Arg(Z)-2-Trp-NHCH2Ph] | 1.2 | 1.9 | –
12 | CC(C)(C)OC(=O)NCCCCNC(=O)[C@H](Cc1c[nH]c2ccccc12)NC(=O)[C@H](CCCN(C(=N)NC(=O)OCc1ccccc1)C(=O)OCc1ccccc1)NC(=O)[C@H](Cc1ccc(OCc2ccccc2)cc1)NC(=O)OC(C)(C)C [SP311C, N-Boc-Tyr(Bn)-Arg(Z)-2-Trp-NH(CH2)4NHBoc] | 1.3 | 1.9 | PA Activation factor [7]: 1.2
13 | CC(C)(C)OC(=O)N[C@@H](Cc1ccc(OCc2ccccc2)cc1)C(=O)N[C@@H](CCCN(C(=N)NC(=O)OCc1ccccc1)C(=O)OCc1ccccc1)C(=O)N[C@@H](Cc1c[nH]c2ccccc12)C(=O)Nc1ccccc1 [SP310C, N-Boc-Tyr(Bn)-Arg(Z)-2-Trp-NHPh] | 1.7 | 1.6 | –
14 | CC(C)(C)OC(=O)N[C@@H](Cc1ccc(OCc2ccccc2)cc1)C(=O)N[C@@H](CC(N)=O)C(=O)N[C@@H](Cc1c[nH]c2ccccc12)C(=O)Nc1ccccc1 [SP314C2, N-Boc-Tyr(Bn)-Asn-Trp-NHPh] (Boc-Tyr(Bn)-Asn-Trp-NHPh) | 1.5 | 2.5 | –
15 | CC(C)C[C@H](NC(=O)[C@H](Cc1ccc(OCc2ccccc2)cc1)NC(=O)OC(C)(C)C)C(=O)N[C@@H](Cc1c[nH]c2ccccc12)C(=O)Nc1ccccc1 [A424P, N-Boc-Tyr(Bn)-Leu-Trp-NHPh] (Boc-Tyr(Bn)-Leu-Trp-NHPh) | 1.2 | 1.9 | –
16 | CC(C)(C)OC(=O)NCCCCNC(=O)[C@H](Cc1c[nH]c2ccccc12)NC(=O)[C@H](CC(N)=O)NC(=O)[C@H](Cc1ccc(OCc2ccccc2)cc1)NC(=O)OC(C)(C)C [SP323C2, N-Boc-Tyr(Bn)-Asn-Trp-NH(CH2)4NHBoc] | 1.6 | 2.2 | PA Activation factor [7]: 1.2
17 | C[C@H](NC(=O)[C@H](Cc1ccc(OCc2ccccc2)cc1)NC(=O)OC(C)(C)C)C(=O)N[C@@H](Cc1c[nH]c2ccccc12)C(=O)NCCCCNC(=O)OC(C)(C)C [SP305R, N-Boc-Tyr(Bn)-Ala-Trp-NH(CH2)4NHBoc] | 1.5 | 3.2 | PA Activation factor [7]: 1.2
18 | C[C@H](NC(=O)[C@H](Cc1ccc(OCc2ccccc2)c(I)c1)NC(=O)OC(C)(C)C)C(=O)N[C@@H](Cc1c[nH]c2c(Br)cccc12)C(=O)O [A215, N-Boc-3-iodo-Tyr(Bn)-Ala-7-bromo-Trp-OH] | – | – | IC50 [5]: 11.3 µM; Ki ([2]; Dixon plot, competitive inhibition): 2 µM; IC50 [2]: 6.8 µM; IC50 [1]: 14.4 µM
19 | CC(C)(C)OC(=O)N[C@@H](Cc1ccc(O)cc1)C(=O)N[C@@H](CCCNC(=N)N)C(=O)N[C@@H](Cc1c[nH]c2ccccc12)C(=O)NCc1ccccc1 [SP325, N-Boc-Tyr-Arg-Trp-NHCH2Ph] (Boc-Tyr-Arg-Trp-NHBn) | – | – | IC50 [5]: 2.5 µM; IC50 [2]: 5.4 µM; IC50 [1]: 19 µM
20 | CC(C)(C)OC(=O)N[C@@H](Cc1ccc(O)cc1)C(=O)N[C@@H](CCCNC(=N)N)C(=O)N[C@@H](Cc1c[nH]c2ccccc12)C(=O)Nc1ccc(O)cc1 [SP324, N-Boc-Tyr-Arg-Trp-NH(4-OH)Ph] | – | – | IC50 [5]: 3 µM; IC50 [2]: 9 µM; IC50 [1]: 21 µM
